According to patent US11147272B2, “Pyridone compounds and agricultural and horticultural fungicides comprising the same as active ingredients” (MITSUI CHEMICALS AGRO, INC., priority 2017, dated 2021):

Legend:
Plasmopara viticola = assay: Test Example G: Downy mildew on vine; conditions: Downy mildew on vine (Neomuscat); 250 ppm spray, 2.5 ml/pot; assessed 7 to 10 days after inoculation
[1] = system: Colletotrichum orbiculare; assay: Test Example H: Anthracnose on cucumber; conditions: Anthracnose on cucumber (Sagami Hanjiro); 250 ppm spray, 2.5 ml/pot; assessed 6 to 10 days after inoculation
Description: Seeds of a test plant (cucumber variety: Sagami Hanjiro) were planted and cultivated until the first leaf appeared. In the test, the inventive compounds were dissolved into dimethyl sulfoxide-methanol mixture solution (volume ratio: 9/1), and the resultant solutions were diluted with well water to a concentration of 250 ppm to obtain the drug solutions. The drug solutions were sprayed to the test plant (2.5 ml/pot). After the drug solutions dried, a conidial suspension (2-4×10^5 conidia/ml) of Colletotrichum orbiculare was inoculated to the plant by spraying. After the inoculation, the plant was kept in a mist chamber at room temperature of 20 to 23° C. for about 24 hours to promote the onset of disease. The degrees of disease development were investigated 6 to 10 days after the inoculation, and the effectiveness of the drug solutions was evaluated.
In Test Examples described above, the degrees of disease development were evaluated in increments of 0.05 from 0 (as no incidence of disease) to 3 (as the degree of disease development in an untreated plant group). Further, control values were calculated using the following equation based on the degree of disease development.
n=Degree of disease development in each treated group
In the table, H: more than 50% control value, L: 50% or less control value, and nt: not tested.

Magnaporthe grisea = assay: whole plant or invertebrate; type: in vivo; conditions: Blast on rice; class of control value
[2] = system: Blumeria graminis f. sp. hordei; assay: Test Example D: Powdery mildew on barley; conditions: Powdery mildew on barley; class of control value
Botrytis cinerea = assay: Test Example B: Gray mold on tomato; conditions: Gray mold on tomato; class of control value
Alternaia brassicicola = assay: Test Example C: Alternaria sooty spot on cabbage; type: in vivo; conditions: Alternaria sooty spot on cabbage; class of control value
Description: Seeds of a test plant (cabbage variety: Shikidori) were planted and cultivated until the cotyledons extended.
<Control Value> Control value=100{1−(n/3)}

Phytophthora infestans = assay: whole plant or invertebrate; type: in vivo; conditions: Late blight on tomato; class of control value
Puccinia recondita = assay: Test Example E: Brown rust on wheat; type: in vivo; conditions: Brown rust on wheat; class of control value

SMILES	Test G control value class (Plasmopara viticola)	Test H control value class [1]	Test A control value class (Magnaporthe grisea)	Test D control value class [2]	Test B control value class (Botrytis cinerea)	Test C control value class (Alternaia brassicicola)	Test F control value class (Phytophthora infestans)	Test E control value class (Puccinia recondita)
CCn1c(-c2c(F)cc(F)cc2F)c(C(=O)C(C)C)cc(Cl)c1=O [compound 66]	L (50% or less control value)	H (more than 50% control value)	H (more than 50% control value)	H (more than 50% control value)	H (more than 50% control value)	H (more than 50% control value)	L (50% or less control value)	H (more than 50% control value)
CCn1c(-c2c(F)cc(F)cc2F)c(C(C)(C)C)ccc1=O [compound 67]	L (50% or less control value)	H (more than 50% control value)	L (50% or less control value)	H (more than 50% control value)	H (more than 50% control value)	H (more than 50% control value)	L (50% or less control value)	H (more than 50% control value)
Cn1c(-c2c(F)cc(F)cc2F)c(C(C)(C)C)ccc1=O [compound 68]	L (50% or less control value)	H (more than 50% control value)	L (50% or less control value)	L (50% or less control value)	L (50% or less control value)	H (more than 50% control value)	L (50% or less control value)	H (more than 50% control value)
CCn1c(-c2c(F)cc(F)cc2F)c(C(C)(C)C)cc(Cl)c1=O [compound 69]	L (50% or less control value)	L (50% or less control value)	H (more than 50% control value)	L (50% or less control value)	H (more than 50% control value)	H (more than 50% control value)	L (50% or less control value)	H (more than 50% control value)
CCn1c(-c2c(F)cc(F)cc2F)c(C(C)(C)C)cc(Br)c1=O [compound 70]	L (50% or less control value)	H (more than 50% control value)	H (more than 50% control value)	H (more than 50% control value)	H (more than 50% control value)	H (more than 50% control value)	L (50% or less control value)	H (more than 50% control value)
CCn1c(-c2c(F)cc(OC)cc2F)c(C(OC)C(C)C)cc(Cl)c1=O (centres unmarked) [compound 71]	L (50% or less control value)	H (more than 50% control value)	H (more than 50% control value)	H (more than 50% control value)	H (more than 50% control value)	H (more than 50% control value)	L (50% or less control value)	H (more than 50% control value)
CCOc1cc(F)c(-c2c(C(OC)C(C)C)cc(Cl)c(=O)n2CC)c(F)c1 (centres unmarked) [compound 72]	H (more than 50% control value)	H (more than 50% control value)	H (more than 50% control value)	H (more than 50% control value)	H (more than 50% control value)	H (more than 50% control value)	L (50% or less control value)	H (more than 50% control value)
CCn1c(-c2c(F)cc(OC)cc2F)c(C(=O)C(C)C)cc(Cl)c1=O [compound 73]	H (more than 50% control value)	H (more than 50% control value)	H (more than 50% control value)	H (more than 50% control value)	H (more than 50% control value)	H (more than 50% control value)	L (50% or less control value)	H (more than 50% control value)
CCn1c(-c2c(F)cc(OC)cc2F)c(C(C)(C)C)cc(Cl)c1=O [compound 74]	H (more than 50% control value)	H (more than 50% control value)	H (more than 50% control value)	L (50% or less control value)	H (more than 50% control value)	H (more than 50% control value)	L (50% or less control value)	H (more than 50% control value)
CCOc1cc(F)c(-c2c(C(C)(C)C)cc(Cl)c(=O)n2CC)c(F)c1 [compound 75]	L (50% or less control value)	H (more than 50% control value)	L (50% or less control value)	L (50% or less control value)	H (more than 50% control value)	H (more than 50% control value)	L (50% or less control value)	H (more than 50% control value)
CCn1c(-c2c(F)cc(OC)cc2F)c(C(C)(C)C)cc(Br)c1=O [compound 76]	L (50% or less control value)	H (more than 50% control value)	H (more than 50% control value)	L (50% or less control value)	H (more than 50% control value)	H (more than 50% control value)	L (50% or less control value)	H (more than 50% control value)
Cn1c(-c2c(F)cc(F)cc2F)c(C(C)(C)C)cc(Cl)c1=O [compound 77]	L (50% or less control value)	L (50% or less control value)	L (50% or less control value)	H (more than 50% control value)	H (more than 50% control value)	H (more than 50% control value)	L (50% or less control value)	H (more than 50% control value)
Cn1c(-c2c(F)cc(F)cc2F)c(C(C)(C)C)cc(Br)c1=O [compound 78]	L (50% or less control value)	H (more than 50% control value)	H (more than 50% control value)	H (more than 50% control value)	H (more than 50% control value)	H (more than 50% control value)	L (50% or less control value)	H (more than 50% control value)
COc1cc(F)c(-c2c(C(C)(C)C)cc(Cl)c(=O)n2C)c(F)c1 [compound 79]	L (50% or less control value)	H (more than 50% control value)	H (more than 50% control value)	H (more than 50% control value)	H (more than 50% control value)	H (more than 50% control value)	L (50% or less control value)	H (more than 50% control value)
CCn1c(-c2c(F)cccc2F)c(CN(C)C(C)C)cc(Cl)c1=O [compound 80]	L (50% or less control value)	H (more than 50% control value)	L (50% or less control value)	L (50% or less control value)	H (more than 50% control value)	L (50% or less control value)	H (more than 50% control value)	L (50% or less control value)
CCn1c(-c2c(F)cc(F)cc2F)c(C(OC)N(C)C(C)C)cc(Cl)c1=O (centres unmarked) [compound 81]	L (50% or less control value)	L (50% or less control value)	H (more than 50% control value)	L (50% or less control value)	H (more than 50% control value)	L (50% or less control value)	L (50% or less control value)	L (50% or less control value)
